The values that follow come from ChEMBL document CHEMBL3576770, “Spirotetronate polyketides as leads in drug discovery” (J Nat Prod, 2015).

The subject of one data set is Staphylococcus aureus. Briefly: Antimicrobial activity against methicillin-resistant Staphylococcus aureus assessed as inhibition of microbial proliferation. It is filed as functional.
Data set [1] can be described thus: Inhibition of gastric ATPase (unknown origin). The class given is tissue-based, Homo sapiens, Stomach.
The target of data set [2] is T1, Gastrin/cholecystokinin type B receptor (Rattus norvegicus, UniProt P30553).
T1 sequence (P30553 whole entry): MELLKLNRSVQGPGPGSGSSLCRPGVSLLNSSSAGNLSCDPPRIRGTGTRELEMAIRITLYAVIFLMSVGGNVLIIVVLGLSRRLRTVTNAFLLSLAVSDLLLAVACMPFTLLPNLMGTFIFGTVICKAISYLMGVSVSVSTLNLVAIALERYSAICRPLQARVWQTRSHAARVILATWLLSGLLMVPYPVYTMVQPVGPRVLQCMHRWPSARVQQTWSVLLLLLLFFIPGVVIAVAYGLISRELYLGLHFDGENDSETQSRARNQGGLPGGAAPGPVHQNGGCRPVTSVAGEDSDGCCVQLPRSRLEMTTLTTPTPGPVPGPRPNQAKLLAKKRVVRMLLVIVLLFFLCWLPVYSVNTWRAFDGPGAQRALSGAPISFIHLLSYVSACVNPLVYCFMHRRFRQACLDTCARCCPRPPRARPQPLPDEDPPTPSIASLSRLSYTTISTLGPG
Briefly: Inhibition of CCK-B receptor in rat cerebral cortex. It is filed as tissue-based.

The nature of data set [3]: Toxicity in ip dosed ICR mouse implanted with mouse EAC. It is filed as organism-based. Particulars: in vivo.
For a further data set, the system named is B16. Put plainly: Cytotoxicity against mouse B16 cells. It is filed as functional.
For another data set, the system named is P388. Briefly: Cytotoxicity against mouse P388 cells. The class given is functional, cell-based.
A further data set deals with L1210. Put plainly: Cytotoxicity against mouse L1210 cells. The class given is functional, cell-based.
Data set [4] in a line: Antitumor activity against mouse EAC implanted in ddy-SLC mouse at 2.5 mg/kg, ip qd administered day 1 to 5 starting 24 hrs post tumor implantation. The class given is functional, Ehrlich.

Turning to `C[C@@H]1C[C@H](C)C(=O)/C=C/[C@@H]2[C@@H](O)[C@H]3OC4=C(C(=O)O[C@@]42C[C@H]3C)C1=O`, the MIC in the data set on Staphylococcus aureus (Staphylococcus aureus, read-out: MIC) turned out to be 5.2 mg/L.

As to `C[C@@H]1C[C@H](C)C(=O)/C=C/[C@@H]2[C@@H](O)[C@H]3OC4=C(C(=O)O[C@@]42C[C@H]3C)C1=O` (single isomer, unassigned; atropisomer), the MIC in the data set on Staphylococcus aureus stood at 3.5 mg/L.

`CC[C@@H]1C[C@]23OC(=O)C(=C2O)[C@@H](O)[C@@H](C)C[C@H](C)CCC[C@]3(C)C=C1C` registered an IC50 in data set [1] of 0.5 µM.

In data set [2], `CC1=CC2C/C=C/C=C/CC(O)C/C=C/CC(C)C3C(CSC3C(=O)C(=O)O)C(=O)C3=C(O)C2(CC1C)OC3=O` (stereo not given) gave an IC50 of 0.0036 µM. In other words, the single-digit nanomolar range.

Regarding `COc1ccc(Cl)c(C)c1C(=O)O[C@@H]1C[C@H](O[C@H]2[C@H](C)O[C@@H](O[C@H]3CCC[C@@H]4[C@@H]3C=C[C@H]3CCCC/C=C/[C@@H]5C=C(C(=O)O)[C@H](C)C[C@]56OC(=O)C(=C6O)OC(=O)[C@@]43C)C(O)[C@@H]2O)O[C@H](C)[C@H]1O` (stereo not given in full), the LD50 in data set [3] was found to be 295 mg/kg.

Regarding `COC(=O)N[C@@H]1[C@H](C)O[C@@H](O[C@H]2C/C=C(\C)[C@@H]3C=C[C@@H]4[C@@H](O[C@H]5C[C@H](O[C@@H]6CC[C@H](C)[C@@H](O[C@H]7C[C@H](O)[C@H](O[C@@H]8CC[C@H](O)[C@@H](C)O8)[C@@H](C)O7)O6)[C@H](OC(C)=O)[C@@H](C)O5)[C@@H](C)C[C@H](C)[C@H]4[C@]3(C)C(=O)C3=C(O)[C@@]4(CC(C=O)=C[C@H](O)[C@H]4/C=C/2C)OC3)C[C@@]1(C)N`, the INH was 25 µg/mL in the data set with B16 and 6.25 µg/mL with P388.

Take `C=C1C(=O)[C@]2(C)C(=O)O[C@@]34C[C@H](C)C(C(=O)O)=C[C@@H]3CCC[C@@H](C)C[C@@H](C)[C@H]1OC24`: the IC50 came to 0.089 µM in the data set on P388 (Mus musculus, P388) and 0.216 µM in the data set with L1210. In addition, the T/C in data set [4] is on record as 145.7%.

A word on the MIC: it is the least concentration at which growth counts as inhibited. The term IC50 denotes the midpoint of a concentration-inhibition curve. Read a low IC50 as greater potency. The term LD50 denotes the dose at which mortality reaches 50%. Higher therefore signals a less toxic substance. In general, T/C refers to the ratio of treated to control.
